“Also recorded” adds a separate entry of the source.
Legend:
D3 = D3 (Homo sapiens, UniProt P35462); experiment: functional pKi (fpKi) at D3, comparison of separated enantiomers; assay type: biochemical; conditions: difference in fpKi between the two separated enantiomers of the same example
[1] = system: Female Sprague Dawley rats; experiment: stress-induced food intake, animal model for binge eating (diet restriction cycles + foot shock); assay type: in vivo
Excerpt: Dieting is the strongest predictor of overeating in response of stress. In this specific case, binge eating or binge/purge behaviours are recognized as key features of the human diseases (bulimia nervosa or anorexia, respectively). Two critical factors seem to modulate the production of binge eating: a history of food restriction and access of high palatable (HP) food (dense in fat and sugar) and the interaction with environmental stress. Based on these premises, preclinical models can be developed to explore the potential therapeutic effect of test compounds on binge eating. One model which may be used is described by Hagan et al (Hagan, M. M. et al., Physiol and Beh 77 (2002): 45-54).
Slight modifications such as those below may be applied to their model, for example: • Instrument to deliver FS: Passive Avoidance (Gemini Avoidance System, Coubourn Instrument, San Diego) may be used instead of the 4 closed runways with metal bar floors (Coulbourn Instruments Habitest System, Allentown, Pa.). • Refeeding: 4 days instead of 6 days • HP food: Baiocchi® (Barilla) instead of Oreo® biscuits • For the submission of the animals to the pharmacological treatment, see: Placidi et al., Int J Eat Disord 2004 36 (3) 328-41
Based on the model by Hagan et al, and incorporating the above changes, a model for binge eating may be set up as follows. Female Sprague Dawley rats (7 weeks old) can be single housed at 21±1 C and under a 12 h/12 h light/dark cycle (dark phase: 18:00-06:00) for all the period of the experiment. Before beginning, rats can be habituated to these conditions for 7 days. The rats can then be divided into 2 groups (16 animals/group). One group may take food ad lib (non restricted group: NR) for the 24 days of the experiment, while the other (Restricted Group: R) may receive a restricted diet (66% of the quantity food intake that the other control group was eating) during 4 days, and eat ad lib for the following 4 days. This cycle can be repeated 3 times. Following the last day of refeeding, each group can be subdivided in two. Eight animals of group NR and 8 animals of group R can receive a stress stimulus (4 Foot Shocks (FS) of 0.6 mA separated by 15 sec intervals) while the other 2 subgroups can remain in the same cage where FS is delivered for the same period of time, but without receiving the FS (no shocked: NS). The 4 groups are S/NR, NS/NR, S/R and NS/R. Immediately following time in the shock apparatus, rats can be submitted to a pharmacological treatment (administration of the test compound or of the vehicle) and then be returned to the animal colony. A pre-measured amount of pellets or HP food (Baiocchie) can be put in each cage, and food intake measured after 4 h. Food intake can be expressed in kcal.
Rationale—The effects of the title compound, prepared in an analogous way with Example 123, were tested in the animal model discussed above. The aim of the present study was to assess the effect of this compound in animals that received 3 cycles of diet (restricted:R) and stress (shocked) conditions similar to binge eating in humans.
Methods—Female Sprague Dawley rats (7-week old) were single housed at 21±1° C. and under a 12 h/12 h light/dark cycle (dark phase: 18:00-06:00) for all the entire experimental period. Rats received a restricted diet (66% of the food intake vs. control group) during 4 days, and ate ad libitum for the following 4 days. This cycle was repeated 3 times. Additionally, two other groups were eating ad libitum (not restricted: NR) and received the shock (NR/S). Following the last day of refeeding, the animals received a stress stimulus (4 Foot Shocks (FS) of 0.6 mA separated by 15 sec intervals) and received vehicle or the title compound (0.03, 0.3 or 3 mg/kg i.p.) immediately after the shock. These were the S/R (shocked/Restricted) rats. The S/NR rats received the shock and vehicle or the title compound (prepared in an analogous way with Example 123; 3 mg/kg i.p.) in the same way as the S/R groups. […]

[2] = S/NR (shocked/not restricted) rats, 3 mg/kg i.p. after foot shock
[3] = S/R (shocked/restricted) rats, 0.03 mg/kg i.p. after foot shock
[4] = S/R (shocked/restricted) rats, 0.3 mg/kg i.p. after foot shock
[5] = S/R (shocked/restricted) rats, 3 mg/kg i.p. after foot shock

Sequence of D3 (P35462 whole entry): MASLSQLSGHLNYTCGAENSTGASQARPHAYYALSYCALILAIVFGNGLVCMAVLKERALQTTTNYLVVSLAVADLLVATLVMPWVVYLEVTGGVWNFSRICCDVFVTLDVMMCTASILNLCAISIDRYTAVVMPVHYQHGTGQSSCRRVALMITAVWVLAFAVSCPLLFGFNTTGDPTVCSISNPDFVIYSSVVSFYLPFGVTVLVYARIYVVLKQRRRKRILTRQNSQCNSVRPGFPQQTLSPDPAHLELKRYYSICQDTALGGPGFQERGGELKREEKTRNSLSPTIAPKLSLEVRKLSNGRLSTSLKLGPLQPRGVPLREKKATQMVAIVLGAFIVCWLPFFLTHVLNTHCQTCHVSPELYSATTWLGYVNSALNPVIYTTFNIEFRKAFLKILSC

| SMILES | fpKi (D3) higher than the other enantiomer (D3) [log-unit] | also measured |
| --- | --- | --- |
| Cc1ncoc1-c1nnc(SCCCN2C[C@@H]3C[C@]3(c3cccc(C(F)(F)F)c3F)C2)n1C (single isomer, unassigned; enantiomer 2) [Example 111 Enantiomer 2] | > 1 | – |
| Cc1ncoc1-c1nnc(SCCCN2C[C@@H]3C[C@]3(c3ccc(Cl)cc3)C2)n1C (single isomer, unassigned) [Example 20 Enantiomer 1] | > 1 | – |
| Cc1ccc2c(-c3nnc(SCCCN4C[C@@H]5C[C@]5(c5ccc(Cl)c(Cl)c5)C4)n3C)cccc2n1 (single isomer, unassigned) [Example 4 Enantiomer 1] | > 0.6 | – |
| Cc1ncoc1-c1nnc(SCCCN2C[C@@H]3C[C@]3(c3ccc(C(F)(F)F)cc3F)C2)n1C.O=C(O)[C@H](O)[C@@H](O)C(=O)O [Example 123, (1S,5R)-1-[2-Fluoro-4-(trifluoromethyl)phenyl]-3-(3-{[4-methyl-5-(4-methyl-1,3-oxazol-5-yl)-4H-1,2,4-triazol-3-yl]thio}propyl)-3-azabicyclo[3.1.0]hexane tartrate] | – | inhibitory effect in non-stressed animals, in respect to controls ([1]; 3 mg/kg i.p., result in words, tartrate): did not show any inhibitory effect; also recorded: No significant effects; Chow Intake after 4 h [1, 2]: 1.92 ± 0.66 kcal; HP Intake after 4 h [1, 2]: 8.73 ± 2.75 kcal; Total Food Intake after 4 h [1, 2]: 10.65 ± 2.75 kcal; Chow Intake after 4 h [1, 3]: 1.95 ± 0.58 kcal; HP Intake after 4 h [1, 3]: 17.11 ± 2.49 kcal; Total Food Intake after 4 h [1, 3]: 19.06 ± 2.44 kcal; Chow Intake after 4 h [1, 4]: 2.09 ± 0.74 kcal; HP Intake after 4 h [1, 4]: 14.44 ± 2.15 kcal; Total Food Intake after 4 h [1, 4]: 16.54 ± 1.94 kcal; Chow Intake after 4 h [1, 5]: 2.62 ± 0.79 kcal; HP Intake after 4 h [1, 5]: 8.89 ± 1.90 kcal; Total Food Intake after 4 h [1, 5]: 11.51 ± 1.99 kcal; effect on total Food Intake ([1]; S/R rats, highest dose of 3 mg/kg, 1-way ANOVA, result in words): significantly decreased total food intake; effect on HP intake ([1]; S/R rats, highest dose of 3 mg/kg, Dunnett's p<0.01, result in words): significantly decreased HP intake; effect on Chow intake ([1]; S/R rats, highest dose of 3 mg/kg, Dunnett's p<0.05, result in words): significantly decreased chow Intake; effect on stress-induced overeating ([1]; result in words): significant inhibitory effect on stress-induced overeating |
| Cc1ccc2c(-c3nnc(SCCCN4C[C@@H]5C[C@]5(c5ccc(Br)cc5)C4)n3C)cccc2n1 (single isomer, unassigned) [Example 2 Enantiomer 2] | > 1 | – |
| Cc1ncoc1-c1nnc(SCCCN2C[C@]3(C)C[C@@]3(c3ccc(C(F)(F)F)c(F)c3)C2)n1C (single isomer, unassigned) [Example 61 Enantiomer 1] | > 2 | – |
| Cc1ncoc1-c1nnc(SCCCN2C[C@@H]3C[C@]3(c3ccc(F)cc3)C2)n1C (single isomer, unassigned) [Example 21 Enantiomer 1] | > 1 | – |
| Cc1ccc2c(-c3nnc(SCCCN4C[C@@H]5C[C@]5(c5ccccc5)C4)n3C)cccc2n1 (single isomer, unassigned) [Example 3 Enantiomer 2] | > 1 | – |
| COc1ccc([C@]23C[C@H]2CN(CCCSc2nnc(-c4cccc5nc(C)ccc45)n2C)C3)cc1 (single isomer, unassigned) [Example 1 Enantiomer 1] | > 1 | – |
| Cc1ncoc1-c1nnc(SCCCN2C[C@@H]3C[C@]3(c3ccc(Br)cc3)C2)n1C (single isomer, unassigned) [Example 9 Enantiomer 1] | > 1 | – |
| Cn1c(SCCCN2C[C@@H]3C[C@]3(c3ccc(OC(F)(F)F)cc3)C2)nnc1C1CCOCC1 (single isomer, unassigned) [Example 33 Enantiomer 1] | > 1 | – |
| Cc1ncoc1-c1nnc(SCCCN2C[C@@H]3C[C@]3(c3cc(F)cc(C(F)(F)F)c3)C2)n1C (single isomer, unassigned; enantiomer 1) [Example 110 Enantiomer 1] | > 1 | – |
| Cc1ncoc1-c1nnc(SCCCN2C[C@]3(C)C[C@@]3(c3cccc(Cl)c3)C2)n1C (single isomer, unassigned) [Example 22 Enantiomer 1] | > 1 | – |
| Cc1ccc2c(-c3nnc(SCCCN4C[C@@H]5C[C@]5(c5ccc(C(C)(C)C)cc5)C4)n3C)cccc2n1 (single isomer, unassigned) [Example 5 Enantiomer 2] | > 0.9 | – |

Further lines, with some results ahead:

| fpKi (D3) higher than the other enantiomer (D3) [log-unit] | SMILES | also measured |
| --- | --- | --- |
| > 1 | Cc1ncoc1-c1nnc(SCCCN2C[C@@H]3C[C@]3(c3ccc(OC(F)(F)F)cc3)C2)n1C (single isomer, unassigned; enantiomer 1) [Example 30 Enantiomer 1] | – |
| > 1 | Cc1ncoc1-c1nnc(SCCCN2C[C@@H]3C[C@]3(c3cccc(F)c3)C2)n1C (single isomer, unassigned) [Example 23 Enantiomer 1] | – |
| > 1 | Cc1ncoc1-c1nnc(SCCCN2C[C@@H]3C[C@]3(c3ccc4c(cnn4C)c3)C2)n1C (single isomer, unassigned) [Example 74 Enantiomer 1] | – |
| > 1 | CCC(=O)c1cc([C@]23C[C@H]2CN(CCCSc2nnc(-c4ocnc4C)n2C)C3)ccc1OC (single isomer, unassigned) [Example 71 Enantiomer 1] | – |
| > 1 | COc1ccc([C@]23C[C@H]2CN(CCCSc2nnc(-c4ocnc4C)n2C)C3)cc1C(C)=O (single isomer, unassigned) [Example 19 Enantiomer 1] | – |
| > 1 | Cc1nc2cc([C@]34C[C@H]3CN(CCCSc3nnc(-c5ocnc5C)n3C)C4)ccc2s1 (single isomer, unassigned) [Example 72 Enantiomer 1] | – |
| > 1 | Cc1ncoc1-c1nnc(SCCCN2C[C@@H]3C[C@]3(c3cc(C(F)(F)F)ccc3F)C2)n1C (single isomer, unassigned) [Example 36 Enantiomer 2] | – |
| > 1 | COc1cccc([C@]23C[C@H]2CN(CCCSc2nnc(-c4ocnc4C)n2C)C3)c1 (single isomer, unassigned) [Example 24 Enantiomer 1] | – |
| > 1 | Cc1ncoc1-c1nnc(SCCCN2C[C@@H]3C[C@]3(c3ccc(C(F)(F)F)cn3)C2)n1C (single isomer, unassigned) [Example 96 Enantiomer 2] | – |
